Test results as given in ChEMBL document CHEMBL3860030, “Design, synthesis and biological evaluation of novel macrocyclic bisbibenzyl analogues as tubulin polymerization inhibitors” (Eur J Med Chem, 2016).
Structures can show the parent of a compound that is named as a salt. One block for each compound: values may come before it. Calls of active or inactive are those of the source. The calls are words filed in the database; no cut-off is given here.

How the values were obtained:
Bos taurus [1] = species on record: Bos taurus; test: Induction of bovine brain tubulin polymerization at 5 uM measured every minute for 1 hr by spectrophotometric method
Bos taurus [2] = species on record: Bos taurus; test: Inhibition of bovine brain tubulin polymerization at 5 uM measured every minute for 1 hr by spectrophotometric method
HCC1428 = test: Cytotoxicity against human HCC1428 cells assessed as decrease in cell viability at 1 uM after 60 hrs by xCELLigence system; format: functional, cell-based
[3] = Cytotoxicity against human HT-29 cells assessed as decrease in cell viability after 48 hrs by MTT assay; format: functional, cell-based; details: HT-29, 48 h
[4] = Cytotoxicity against docetaxel-resistant human PC3 cells assessed as decrease in cell viability after 48 hrs by MTT assay; format: functional, cell-based; details: PC-3, 48 h
cells = details: Homo sapiens, HeLa, 48 h
Description: Cytotoxicity against human HeLa cells assessed as decrease in cell viability after 48 hrs by MTT assay

[5] = Cytotoxicity against human HCC1428 cells assessed as decrease in cell viability after 48 hrs by MTT assay; format: functional, cell-based; details: HCC1428, 48 h

- Activity (Bos taurus [1]): Active
Compound: CC(=O)O[C@H]1C(=O)[C@@]2(C)[C@H]([C@H](OC(=O)c3ccccc3)[C@]3(O)C[C@H](OC(=O)[C@H](O)[C@@H](NC(=O)c4ccccc4)c4ccccc4)C(C)=C1C3(C)C)[C@]1(OC(C)=O)CO[C@@H]1C[C@@H]2O

- inhibition (Bos taurus [2]): Active
Compound: CC[C@]1(O)C[C@H]2CN(CCc3c([nH]c4ccccc34)[C@@](C(=O)OC)(c3cc4c(cc3OC)N(C=O)[C@H]3[C@@](O)(C(=O)OC)[C@H](OC(C)=O)[C@]5(CC)C=CCN6CC[C@]43[C@@H]65)C2)C1
- Activity (HCC1428): Active

- IC50 (cells): 1060 nM
Compound: COc1cccc2c1C(=O)c1c(O)c3c(c(O)c1C2=O)C[C@@](O)(C(=O)CO)C[C@@H]3O[C@H]1C[C@H](N)[C@H](O)[C@H](C)O1 [DOXORUBICIN HYDROCHLORIDE]
- IC50 [3]: 1460 nM
- IC50 [4]: 15200 nM
- IC50 [5]: 1560 nM
